Measured values as given in patent US20070031398A1, “One of several enzyme-containing compounds, dietetic food products and drugs produced from and the use therefor for medical purpose” (MUCOS PHARMA GmbH & Co., priority 2003, published 2007).

System: prostate carcinomas
Assay: concomitant therapy during treatment of carcinomas
Assay type: in vivo
Details: prophylactic and therapeutic effects
From the text: This applies both to the period before, during and at defined intervals after the tumor-destructive therapy, e.g. an operation, chemotherapy and/or radiotherapy. The reduced intake of micronutrients (e.g. vitamins, trace elements) which is caused by nausea, reduced food intake, vomiting, diarrhea and sweating is compensated. This improves the patient's tolerance of the treatment, increases the response to the therapy and improves the patient's quality of life. […] Overall, the efficacy of the tumor-destructive therapy is improved.

With CC(C)=CCC/C(C)=C/C=C/C(C)=C/C=C/C(C)=C/C=C/C=C(C)/C=C/C=C(C)/C=C/C=C(\C)CCC=C(C)C [lycopene] the “incidence and aggressiveness of prostate carcinomas” value was “reduction in the incidence and aggressiveness”.
